What is called IC50 is the concentration at which inhibition is half-maximal.

Structures are written as SMILES.

Our source for the IC50 values is patent US9328112B2, “Tetracyclic CDK9 kinase inhibitors” (AbbVie Inc., priority 2014, dated 2016).

The test system of one assay is H929 cells. Put plainly: Cell viability assay (Cell TiterGlo). Format: cell-based. The note with it: Homo sapiens, NCI-H929, 24 hours at 37° C., Cell TiterGlo luminescence. How it is done:
The cell viability assay was performed using H929 cells. Cells were seeded in 96-well plates at 10,000 cells/well and, after overnight incubation, treated with compounds in a dose response of 3-fold dilutions from 10 μM to 0.005 μM ([…], 0.1% final DMSO concentration). After 24 hours at 37° C., cell viability was measured using Cell TiterGlo reagent (Promega) with a luminescence reader.

A further assay has as its target CDK9/Cyclin T1 (Homo sapiens (Human), UniProt P50750). The experiment in a line: CDK9 enzyme assay (LANCE ULight TR-FRET kinase assay). It is filed as biochemical. The note with it: 1000 μM ATP, 100 nM ULight MBP, kinase reaction 1 hour. How it is done:
CDK9 enzyme activities were measured using LANCE ULight TR-FRET kinase assay reagents (PerkinElmer, Waltham, Mass.). Compounds were diluted in 100% DMSO then diluted with 1:10 in serine/threonine kinase assay buffer containing 20 mM HEPES, 10 mM MgCl2, […], and 0.0075% Triton X-100. Equal volume of the compound dilutions was added to a final reaction mixture containing LANCE detection buffer (PerkinElmer CR97-100), 100 nM ULight MBP (PerkinElmer TRF0109M), 1000 μM ATP, and CDK9/Cyclin T1 (Carna Biosciences 04-110). The kinase reaction was carried out for 1 hour before addition of stopping buffer to a final of 20 mM EDTA and 0.5 nM of LANCE Ultra Europium anti-phospho-MBP antibody (PerkinElmer TRF0201M) in LANCE detection buffer. The reaction was incubated for 1 hour and the signal was read in Envision in TR-FRET mode (excitation at 320 nm and emission at 615/665 nm).
Background: Time-resolved FRET reads energy transfer from a long-lived donor to a nearby acceptor.

Sequence of CDK9/Cyclin T1 (P50750 whole entry): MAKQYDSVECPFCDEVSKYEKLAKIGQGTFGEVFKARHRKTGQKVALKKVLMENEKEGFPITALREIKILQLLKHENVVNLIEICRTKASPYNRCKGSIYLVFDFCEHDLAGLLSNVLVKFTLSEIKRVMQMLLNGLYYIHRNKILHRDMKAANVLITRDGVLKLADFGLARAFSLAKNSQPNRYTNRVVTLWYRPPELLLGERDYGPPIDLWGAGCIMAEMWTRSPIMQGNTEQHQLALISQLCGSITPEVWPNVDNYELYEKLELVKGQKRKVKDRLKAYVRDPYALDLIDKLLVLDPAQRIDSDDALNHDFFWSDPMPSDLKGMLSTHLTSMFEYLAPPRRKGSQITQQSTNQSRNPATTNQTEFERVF
Sequence of CDK9/Cyclin T1 (O60563 whole entry partner): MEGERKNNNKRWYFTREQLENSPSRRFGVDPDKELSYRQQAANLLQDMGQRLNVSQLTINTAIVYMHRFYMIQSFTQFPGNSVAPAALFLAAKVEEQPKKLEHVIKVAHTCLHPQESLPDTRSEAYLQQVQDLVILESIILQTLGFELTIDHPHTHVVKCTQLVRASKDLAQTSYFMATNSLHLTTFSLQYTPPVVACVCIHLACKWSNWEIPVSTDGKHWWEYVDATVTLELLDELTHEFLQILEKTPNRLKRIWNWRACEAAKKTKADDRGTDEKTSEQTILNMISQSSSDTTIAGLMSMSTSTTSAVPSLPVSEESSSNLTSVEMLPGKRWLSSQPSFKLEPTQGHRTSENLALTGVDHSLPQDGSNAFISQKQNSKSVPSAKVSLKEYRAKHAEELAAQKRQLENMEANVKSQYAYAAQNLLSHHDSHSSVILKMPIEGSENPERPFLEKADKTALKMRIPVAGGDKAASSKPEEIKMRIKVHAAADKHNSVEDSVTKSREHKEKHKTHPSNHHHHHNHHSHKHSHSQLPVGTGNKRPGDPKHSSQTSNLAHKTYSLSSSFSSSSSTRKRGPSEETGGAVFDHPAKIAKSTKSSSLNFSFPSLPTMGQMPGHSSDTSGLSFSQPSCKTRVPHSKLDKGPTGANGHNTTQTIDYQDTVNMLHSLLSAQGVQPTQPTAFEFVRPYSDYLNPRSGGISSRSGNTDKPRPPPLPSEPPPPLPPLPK

As to `CS(=O)(=O)N1CC=C(c2[nH]c3nccc4c3c2CNc2ccc(F)cc2-4)CC1` [Example 5, 10-fluoro-5-[1-(methylsulfonyl)-1,2,3,6-tetrahydropyridin-4-yl]-6,7-dihydro-4H-3,4,7-triazadibenzo[cd,f]azulene], the values for the 50% inhibitory concentration (IC50) with H929 cells and on CDK9/Cyclin T1 were 0.73 µM and 0.062 µM, respectively.
The like results for `CN(C)C(=O)CN1CC=C(c2[nH]c3nccc4c3c2CN(C)c2ccccc2-4)CC1` [Example 162, N,N-dimethyl-2-[4-(7-methyl-6,7-dihydro-4H-3,4,7-triazadibenzo[cd,f]azulen-5-yl)-3,6-dihydropyridin-1(2H)-yl]acetamide] were, in that order, 0.021 µM and 0.115 µM.
The corresponding values for `CNC(=O)N1[C@H]2CC[C@@H]1C=C(c1[nH]c3nccc4c3c1CN(C)c1ccc(F)cc1-4)C2` [Example 57, (1R,5S)-3-(10-fluoro-7-methyl-6,7-dihydro-4H-3,4,7-triazadibenzo[cd,f]azulen-5-yl)-N-methyl-8-azabicyclo[3.2.1]oct-2-ene-8-carboxamide] are 2.2 µM and 0.2 µM.
As to `CN1c2ccc(F)cc2-c2ccnc3[nH]c(C4=CCNCC4)c(c23)C1c1cnn(C)c1` (stereo not drawn) [Example 10, 10-fluoro-7-methyl-6-(1-methyl-1H-pyrazol-4-yl)-5-(1,2,3,6-tetrahydropyridin-4-yl)-6,7-dihydro-4H-3,4,7-triazadibenzo[cd,f]azulene], the figures for the IC50 in the assay with H929 cells and against CDK9/Cyclin T1 were 0.36 µM and 0.23 µM, respectively.
The corresponding values for `CN1Cc2c(C3=CCC(C(=O)O)CC3)[nH]c3nccc(c23)-c2cc(F)ccc21` (stereo not drawn) [Example 41, 4-(10-fluoro-7-methyl-6,7-dihydro-4H-3,4,7-triazadibenzo[cd,f]azulen-5-yl)cyclohex-3-ene-1-carboxylic acid] are 1.1 µM and 0.15 µM.
For `CN1Cc2c(C3=CCC(N4CCC[C@H]4C(=O)O)CC3)[nH]c3nccc(c23)-c2cc(F)ccc21` (stereo partly drawn) [Example 37, 1-[4-(10-fluoro-7-methyl-6,7-dihydro-4H-3,4,7-triazadibenzo[cd,f]azulen-5-yl)cyclohex-3-en-1-yl]-L-proline], the IC50 came out at 0.29 µM with H929 cells and 0.16 µM at CDK9/Cyclin T1.
Regarding `CN1Cc2c(C3=CC4CN(CC(=O)N5CC(O)C5)CC4C3)[nH]c3nccc(c23)-c2cc(F)ccc21` (stereo not drawn) [Example 84, 2-[5-(10-fluoro-7-methyl-6,7-dihydro-4H-3,4,7-triazadibenzo[cd,f]azulen-5-yl)-3,3a,4,6a-tetrahydrocyclopenta[c]pyrrol-2(1H)-yl]-1-(3-hydroxyazetidin-1-yl)ethanone], the concentration for half-maximal inhibition (IC50) in the assay on H929 cells was found to be 0.18 µM; against CDK9/Cyclin T1, 0.094 µM.
With `CNS(=O)(=O)CC(=O)N1CC=C(c2[nH]c3nccc4c3c2CN(C)c2ccc(F)cc2-4)CC1` [Example 25, 2-[4-(10-fluoro-7-methyl-6,7-dihydro-4H-3,4,7-triazadibenzo[cd,f]azulen-5-yl)-3,6-dihydropyridin-1(2H)-yl]-N-methyl-2-oxoethanesulfonamide], the results for the IC50 with H929 cells and against CDK9/Cyclin T1 were 0.065 µM and 0.022 µM, respectively.
In the case of `CN(C)C(=O)CN1CC2C=C(c3[nH]c4nccc5c4c3CN(C)c3ccc(F)cc3-5)CC2C1` (stereo not drawn) [Example 77, 2-[5-(10-fluoro-7-methyl-6,7-dihydro-4H-3,4,7-triazadibenzo[cd,f]azulen-5-yl)-3,3a,4,6a-tetrahydrocyclopenta[c]pyrrol-2(1H)-yl]-N,N-dimethylacetamide], the IC50 amounted to 0.078 µM with H929 cells and 0.046 µM against CDK9/Cyclin T1.
The corresponding values for `CN1Cc2c(-c3ccc(C(=O)O)cc3)[nH]c3nccc(c23)-c2cc(F)ccc21` [Example 47, 4-(10-fluoro-7-methyl-6,7-dihydro-4H-3,4,7-triazadibenzo[cd,f]azulen-5-yl)benzoic acid] are 9.8 µM and 0.15 µM.
As to `CN1Cc2c(C3=CC4CCCC(C3)N4CC(=O)N(C)C3CC(O)C3)[nH]c3nccc(c23)-c2cc(F)ccc21` (stereo not drawn) [Example 106, 2-[3-(10-fluoro-7-methyl-6,7-dihydro-4H-3,4,7-triazadibenzo[cd,f]azulen-5-yl)-9-azabicyclo[3.3.1]non-2-en-9-yl]-N-(3-hydroxycyclobutyl)-N-methylacetamide], the figures for the concentration for half-maximal inhibition (IC50) in the assay with H929 cells and on CDK9/Cyclin T1 were 0.13 µM and 0.066 µM, respectively.
`CNC(=O)N1CC=C(c2[nH]c3nccc4c3c2CN(C)c2ccc(F)cc2-4)CC1` [Example 13, 4-(10-fluoro-7-methyl-6,7-dihydro-4H-3,4,7-triazadibenzo[cd,f]azulen-5-yl)-N-methyl-3,6-dihydropyridine-1(2H)-carboxamide] gave a 50% inhibitory concentration (IC50) in the assay on H929 cells of 0.093 µM.
`CN1Cc2c(C3=CCN([C@H]4CC[C@@H](CC(=O)O)CC4)CC3)[nH]c3nccc(c23)-c2ccccc21` [Example 170, {cis-4-[4-(7-methyl-6,7-dihydro-4H-3,4,7-triazadibenzo[cd,f]azulen-5-yl)-3,6-dihydropyridin-1(2H)-yl]cyclohexyl}acetic acid] registered a half-inhibitory concentration (IC50) on CDK9/Cyclin T1 of 0.11 µM.
Turning to `CCC1c2c(C3=CCN(C(=O)OC(C)(C)C)CC3)[nH]c3nccc(c23)-c2cc(F)ccc2N1C` (stereo not drawn) [Example 8, tert-butyl 4-(6-ethyl-10-fluoro-7-methyl-6,7-dihydro-4H-3,4,7-triazadibenzo[cd,f]azulen-5-yl)-3,6-dihydropyridine-1(2H)-carboxylate], the IC50 against CDK9/Cyclin T1 was 1.4 µM.
Regarding `CN(CCO)C(=O)CN1CC=C(c2[nH]c3ncc(F)c4c3c2CN(C)c2ccc(F)cc2-4)CC1` [Example 71, 2-[4-(1,10-difluoro-7-methyl-6,7-dihydro-4H-3,4,7-triazadibenzo[cd,f]azulen-5-yl)-3,6-dihydropyridin-1(2H)-yl]-N-(2-hydroxyethyl)-N-methylacetamide], the midpoint of inhibition in the assay with H929 cells, the IC50, lay at 0.021 µM.
`CN1Cc2c(C3=CCN(C4CCC(C(=O)O)CC4)CC3)[nH]c3nccc(c23)-c2ccccc21` (stereo not drawn) [Example 172, 4-[4-(7-methyl-6,7-dihydro-4H-3,4,7-triazadibenzo[cd,f]azulen-5-yl)-3,6-dihydropyridin-1(2H)-yl]cyclohexanecarboxylic acid] displayed an IC50 against CDK9/Cyclin T1 of 0.12 µM. That is a sub-micromolar value.
For `CN1Cc2c(C3=CCN([C@H]4CC[C@H](CC(=O)O)CC4)CC3)[nH]c3nccc(c23)-c2ccccc21` [Example 169, {trans-4-[4-(7-methyl-6,7-dihydro-4H-3,4,7-triazadibenzo[cd,f]azulen-5-yl)-3,6-dihydropyridin-1(2H)-yl]cyclohexyl}acetic acid], at CDK9/Cyclin T1, the IC50 was found to be 0.09 µM.
In the assay on H929 cells, `CN1Cc2c(C3=CCN(S(C)(=O)=O)CC3)[nH]c3ncc(F)c(c23)-c2cc(F)ccc21` [Example 68, 1,10-difluoro-7-methyl-5-[1-(methylsulfonyl)-1,2,3,6-tetrahydropyridin-4-yl]-6,7-dihydro-4H-3,4,7-triazadibenzo[cd,f]azulene] returned an IC50 of 0.13 µM.
`CN1Cc2c(C3CCN(CC(=O)O)CC3)[nH]c3nccc(c23)-c2cc(F)ccc21` [Example 23, [4-(10-fluoro-7-methyl-6,7-dihydro-4H-3,4,7-triazadibenzo[cd,f]azulen-5-yl)piperidin-1-yl]acetic acid]: on CDK9/Cyclin T1, half-maximal inhibition (IC50) was put at 0.15 µM.
Regarding `CN1Cc2c(C3CCN(CC(=O)OC(C)(C)C)CC3)[nH]c3nccc(c23)-c2cc(F)ccc21` [Example 22, tert-butyl[4-(10-fluoro-7-methyl-6,7-dihydro-4H-3,4,7-triazadibenzo[cd,f]azulen-5-yl)piperidin-1-yl]acetate], at CDK9/Cyclin T1, the half-maximal inhibitory concentration (IC50) was 2.8 µM.
The molecule `COC(=O)C[C@H]1CC[C@H](N2CC=C(c3[nH]c4nccc5c4c3CN(C)c3cc(F)c(F)cc3-5)CC2)CC1` [Example 133, methyl{trans-4-[4-(9,10-difluoro-7-methyl-6,7-dihydro-4H-3,4,7-triazadibenzo[cd,f]azulen-5-yl)-3,6-dihydropyridin-1(2H)-yl]cyclohexyl}acetate] came in with an IC50 against CDK9/Cyclin T1 of 0.058 µM.
Consider `CN1Cc2c(C3=CCCN(CC(=O)O)C3)[nH]c3nccc(c23)-c2cc(F)ccc21` [Example 112, [5-(10-fluoro-7-methyl-6,7-dihydro-4H-3,4,7-triazadibenzo[cd,f]azulen-5-yl)-3,6-dihydropyridin-1(2H)-yl]acetic acid], for which, at CDK9/Cyclin T1, the half-inhibitory concentration (IC50) is 0.24 µM.
In the case of `CN1Cc2c(C3=CCN([C@H]4CC[C@H](C(=O)O)CC4)CC3)[nH]c3nccc(c23)-c2ccccc21` [Example 171, trans-4-[4-(7-methyl-6,7-dihydro-4H-3,4,7-triazadibenzo[cd,f]azulen-5-yl)-3,6-dihydropyridin-1(2H)-yl]cyclohexanecarboxylic acid], it took 0.15 µM to reach half-maximal inhibition against CDK9/Cyclin T1 (IC50).
`CC(C(=O)O)=C1CCC(N2CC=C(c3[nH]c4nccc5c4c3CN(C)c3ccc(F)cc3-5)CC2)CC1` (stereo not drawn) [Example 176, 2-{4-[4-(10-fluoro-7-methyl-6,7-dihydro-4H-3,4,7-triazadibenzo[cd,f]azulen-5-yl)-3,6-dihydropyridin-1(2H)-yl]cyclohexylidene}propanoic acid] displayed an IC50 at CDK9/Cyclin T1 of 0.084 µM. This IC50 lies about 1.8-fold lower than the previous one.
Regarding `CN1Cc2c(C3=CCN(C(=O)OC(C)(C)C)CC3)[nH]c3nccc(c23)-c2cc(F)ccc21` [Example 2, tert-butyl 4-(10-fluoro-7-methyl-6,7-dihydro-4H-3,4,7-triazadibenzo[cd,f]azulen-5-yl)-3,6-dihydropyridine-1(2H)-carboxylate], 0.94 µM corresponded to half-maximal inhibition in the assay with H929 cells (IC50).
